From publication PMC8071537
Like-named read-outs stand apart in the source and are kept apart here.

Key:
[1] = Pharmacokinetics of oral TPT in rats with zosuquidar and/or Ko143 (Table S2); settings: TPT 20 mg/kg PO + Ko143 10 mg/kg
Experimental: In the modified Taxol® formulation, TPT was prepared at a concentration of 2 mg/mL
TPT was also dissolved in isotonic saline at a concentration of
Tween® 80 was dissolved in
Oral Administration and Plasma Sampling
claims in published maps and institu-for the oral administration of TPT (20 mg/kg) with or without zosuquidar (25 mg/kg),
formulation. After drug administration, blood sampling was performed at 0, 0.05, 0.12,
The SD rats (male, 7‒8-weeks old, 235‒265 g) were divided into four groups (n = 6‒
Blood sampling was done at 0, 0.033, 0.083,
Pheonix WinNonlin ® software (version 8.0–8.1, Pharsight Corporation, Mountain
View, CA, USA) was used to estimate the PK parameters following oral TP T administra-
tion in rats. Non-compartmental analysis was performed using the plasma TPT concen-
tration–time profiles to obtain the following PK parameters: initial plasma concentration
(C0), area under the plasma concentration–time curve from zero to infinity (AUCINF), elim-
ination half-life (t1/2), apparent volume of distribution (Vd) after oral administration (Vd/F),
total clearance (Clt), and total oral clearance (Clt/F). The maximum plasma concentration
(Cmax) and the time required to reach Cmax (Tmax) were directly determined from the plasma
TPT concentration–time curve. The absolute BA (AB) and the relative BA (RB) of TPT were

[2] = parameters: method as in PMID 8853931; settings: humans; cited from earlier work
[3] = parameters: method as in PMID 8853931; settings: lactone moiety converted to carboxylated open-ring form; cited from earlier work
[4] = tested on: CYP1A2, CYP2A6, CYP2C8/9, CYP2C19, CYP2D6, CYP2E, CYP3A, or CYP4A; parameters: method as in earlier work; settings: According to GlaxoSmithKline; cited from earlier work
in vivo = settings: male, Sprague-Dawley, rat, po, 20 mg/kg
Experimental: (§1) For PK studies, the carotid artery in healthy SD rats (male, 7‒8 weeks, 220‒298 g) was catheterized one day before drug administration [29, 30, 31, 32]. Four to six rats were grouped for the oral administration of TPT (20 mg/kg) with or without compounds (2 mg/kg) in the modified Taxol® formulation and the same dose of TPT in saline only.
(§2) The samples were chromatographically separated using a Capcell Pak C18 UG120 column (4.6 mm × 250 mm, 5 μm, Osaka Soda Co. Ltd., Osaka, Japan) with the mobile phase composed of 10 mM phosphate buffer containing 1% triethylamine (TEA) (pH 3.5) and methanol containing 1% TEA (pH 6.5) (56/44, v/v) at a flow rate of 1.0 mL/min for 30 min and detected at an excitation wavelength of 381 nm and an emission wavelength of 527 nm. The injection volume was 50 μL.
(§3) Pheonix WinNonlin® software (version 8.1, Pharsight Corporation, Mountain View, CA, USA) was used to estimate the PK parameters following oral TPT administration to rats. Non-compartmental analysis was performed using the plasma TPT concentration–time profiles to obtain the following PK parameters: area under the plasma concentration–time curve from zero to infinity (AUCINF), elimination half-life (t1/2), apparent volume of distribution after oral administration (Vd/F), and total oral clearance (Clt/F). The maximum plasma concentration (Cmax) and the time required to reach Cmax (Tmax) were directly measured from the plasma TPT concentration–time curve. The relative BA (RB) of TPT was calculated using the Equation (1):RB (%) = (AUCINF po co-administration)/(AUCINF po control) × 100(1)

[5] = Pharmacokinetics of oral TPT in rats with or without dual inhibitor candidates or formulation; settings: male, Sprague-Dawley, rat, in vivo, 20 mg/kg
Experimental: as §1, §2, §3

P-gp [6] = biological target: T1, P-gp (Homo sapiens, UniProt P08183); assay: TPT accumulation by flow cytometry in P-gp-overexpressing MCF-7/ADR cells; settings: 200 μM TPT, 30 min, vs TPT-only; zosuquidar/Ko143 1 μM
Experimental: In this study, the cells were treated with TPT or DNR after incubation with the P-gp and/or BCRP inhibitor candidates or with the excipients for 5 min. When the incubation was complete, the medium containing the substrate and inhibitor candidate or excipient was removed, and the cells were resuspended in cold phosphate buffer saline (PBS) (500 μL). TPT accumulation in the cells was measured using a flow cytometer (NovoCyte 2060R, ACEA Biosciences Inc., San Diego, CA, USA). The mean fluorescence intensity values were calculated, and at least three independent biological duplicates were performed.

P-gp [7] = biological target: T1, P-gp; settings: 10 μM DNR, 30 min, vs DNR-only control; zosuquidar 1 μM
Experimental: In this study, the cells were treated with TPT or DNR after incubation with the P-gp and/or BCRP inhibitor candidates or with the excipients for 5 min. When the incubation was complete, the medium containing the substrate and inhibitor candidate or excipient was removed, and the cells were resuspended in cold phosphate buffer saline (PBS) (500 μL). […] The mean fluorescence intensity values were calculated, and at least three independent biological duplicates were performed.
Substrate Drug Accumulation Study by Flow Cytometry
N.Y.; Sivaraman, A.; Naik, R.; Jin, μL) with 10 μM DNR in the presence and/or absence of 1 μM zosuquidar for 30 min or
TPT accumulation in cells resuspended in cold PBS

[8] = in vivo, 10 mg/kg; cited from earlier work

T1 sequence (P08183 whole entry): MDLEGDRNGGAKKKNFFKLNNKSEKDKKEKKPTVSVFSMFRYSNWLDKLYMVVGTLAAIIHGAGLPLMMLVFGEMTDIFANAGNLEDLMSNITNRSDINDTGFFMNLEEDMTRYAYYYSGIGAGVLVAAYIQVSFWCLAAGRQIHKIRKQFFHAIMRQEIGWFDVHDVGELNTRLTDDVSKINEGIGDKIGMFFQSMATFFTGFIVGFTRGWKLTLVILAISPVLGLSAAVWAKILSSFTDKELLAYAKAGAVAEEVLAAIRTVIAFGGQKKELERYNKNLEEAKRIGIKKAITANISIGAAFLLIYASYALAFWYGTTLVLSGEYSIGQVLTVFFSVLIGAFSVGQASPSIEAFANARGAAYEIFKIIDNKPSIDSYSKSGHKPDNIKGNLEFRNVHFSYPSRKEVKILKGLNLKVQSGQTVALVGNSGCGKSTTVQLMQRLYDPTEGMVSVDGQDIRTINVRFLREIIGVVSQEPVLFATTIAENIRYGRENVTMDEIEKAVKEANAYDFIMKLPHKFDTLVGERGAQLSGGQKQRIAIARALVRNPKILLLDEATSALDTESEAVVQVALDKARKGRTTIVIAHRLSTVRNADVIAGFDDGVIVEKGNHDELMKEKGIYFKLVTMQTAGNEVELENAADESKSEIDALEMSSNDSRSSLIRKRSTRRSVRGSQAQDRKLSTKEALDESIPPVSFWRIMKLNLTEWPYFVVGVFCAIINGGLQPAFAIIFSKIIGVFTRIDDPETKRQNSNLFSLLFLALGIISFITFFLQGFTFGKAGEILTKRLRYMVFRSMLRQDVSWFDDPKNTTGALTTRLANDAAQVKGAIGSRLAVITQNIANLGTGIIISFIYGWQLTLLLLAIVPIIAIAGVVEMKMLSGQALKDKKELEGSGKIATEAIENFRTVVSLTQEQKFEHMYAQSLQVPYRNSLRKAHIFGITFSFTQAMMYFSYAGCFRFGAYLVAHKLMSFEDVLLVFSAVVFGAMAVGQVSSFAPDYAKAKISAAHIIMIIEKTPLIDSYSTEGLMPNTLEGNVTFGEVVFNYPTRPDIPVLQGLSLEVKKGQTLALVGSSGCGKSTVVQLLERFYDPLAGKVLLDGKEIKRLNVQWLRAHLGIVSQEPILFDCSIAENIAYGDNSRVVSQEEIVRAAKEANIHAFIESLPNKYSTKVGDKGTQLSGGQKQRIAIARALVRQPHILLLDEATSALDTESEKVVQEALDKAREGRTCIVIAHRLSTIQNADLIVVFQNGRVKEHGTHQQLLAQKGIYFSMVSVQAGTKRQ

COc1ccc2c3c([nH]c2c1)[C@H](CC(C)C)N1C(=O)[C@H](CCC(=O)OC(C)(C)C)NC(=O)[C@@H]1C3 [Ko143]
enhanced absorption of TPT [1]: >two-fold

CC[C@@]1(O)C(=O)OCc2c1cc1n(c2=O)Cc2cc3c(CN(C)C)c(O)ccc3nc2-1 [TPT, Topotecan]
half-life [2]: 3 h
hepatic metabolism: amount of N-desmethyl TPT (of the total amount) [2]: < 7%
oral BA of active TPT [2]: approximately 35%
renal excretion (of the total administered dose) [2]: approximately 40%
stability under physiological pH [3]: unstable
in vitro activity of CYP1A2, CYP2A6, CYP2C8/9, CYP2C19, CYP2D6, CYP2E, CYP3A, or CYP4A [4]: does not alter
AUC(0-inf) (in vivo): 2360 ± 543 ng·h/mL
Cmax (in vivo): 727 ± 265 ng/mL
Tmax (in vivo): 30 to 60 min
Vd/F [5]: 42.1 ± 14.1 L
half-life [5]: 203 ± 65.4 min

O[C@@H](COc1cccc2ncccc12)CN1CCN([C@@H]2c3ccccc3[C@@H]3[C@H](c4ccccc42)C3(F)F)CC1 [zosuquidar, Zosuquidar]
TPT accumulation in ADR cells (P-gp [6]): no significant difference
increase in DNR accumulation in P-gp-overexpressing cells (P-gp [7]): approximately three-fold increase

silymarin
Vd/F and Clt/F of PTX [8]: decreased
